Legend:
Drosophila = details: feeding Drosophila; cited from earlier work
flies = details: administered orally to flies; cited from earlier work
wild-type flies = assay: Motion tracking with wild-type flies; type: in vivo, Drosophila; details: flies fed 0.1M or 0.05M LiCl, compared to controls; FIG. 32
Experimental: (§1) Each movie is first scored individually to give one value per score and movie. A single movie is therefore considered to be the experimental base unit. Thereafter average values and standard errors for all scores are calculated from the movie score values for all repeats for a vial. Those averages and standard errors are the values shown in the PhenoScreen program. The data that is used in the scoring process are the trajectories of the corresponding movie. Each trajectory consists of a list of x- and y-coordinates of the position of the fly (and also size), with one list entry for every frame from when it starts moving in one frame until it stops in another.
Speed: The Speed score is calculated in the same way as the X-Speed score, but instead of only using the length of the x-component of the speed vector, the length of the whole vector is used. That is, [length]=square root of ([x-length]^2+[y-length]^2).
Turning: The Turning score is calculated in the same way as the Speed score, but instead of using the length of the speed vector, the absolute angle between the current speed vector and the previous one is used, giving a value between […].
Stumbling: The Stumbling score is calculated in the same way as the Speed score, but instead of using the length of the speed vector, the absolute angle between the current speed vector and the direction of body orientation is used, giving a value between 0 and 90 degrees.
Several sets of wild-type flies were assayed under various conditions to test the motion tracking software. Lithium Chloride (LiCl), a treatment for bipolar affective disorder in humans, is also known to induce behavioral changes in Drosophila (Xia et al., 1997). […] The results of this assay are shown in the bar graph of FIG. 32.

[1] = system: Drosophila expressing a mutant form of human Huntington (HD); assay: Motion tracking with Drosophila model of Huntington disease; type: in vivo; details: HD flies with drug versus wt flies
Experimental: as §1
Cross150: The Cross150 score is the number of trajectories that either crossed the line at x=150 in the negative x-direction (from bottom to top of the vial) during the movie, or that were already above that line at the start of the movie. […] In other words this score measures the number of detected flies that either managed to hold on to the tube or that managed to climb above the x=150 line within the length of the movie.
Drosophila expressing a mutant form of human Huntington (HD) have a functional deficit that is quantifiable, reproducible, and is suitable for automated high-throughput screening. Drosophila (or specimen) movements can be analyzed for various characteristics and/or traits. […]

In the case of 4-phenylbutyrate [PBA], the lifespan (Drosophila) is listed as “significantly increase” and the locomotor vigor (Drosophila) is listed as “without diminution”.

For NCC1(CC(=O)O)CCCCC1 [Gabapentin], the “mean recovery times following seizure” value (flies) is listed as “reduce” and the seizure (flies) is listed as “reduce”.

In the case of [Cl-].[Li+] [LiCl, Lithium Chloride], the incidence of stumbling (wild-type flies) is reported as “increase incidence”, the incidence of turning (wild-type flies) is reported as “increase incidence” and the speed (wild-type flies) is reported as “significant reduction”.

For O=C1NC(=O)C(c2ccccc2)(c2ccccc2)N1 [Phenyloin], the “mean recovery times following seizure” value (flies) is given as “reduce” and the seizure (flies) is given as “reduce”.

In the case of CC(/C=C/C(=O)NO)=C\[C@@H](C)C(=O)c1ccc(N(C)C)cc1 [TSA], the climbing ability [1] is reported as “restore climbing ability for HD flies to almost the same level as for wt flies” and the “speed restored to wt level” value [1] is reported as “the same is not true for speed”.

For CC1(C)O[C@@H]2[C@@H](CO[C@@]3(COS(N)(=O)=O)OC(C)(C)O[C@@H]23)O1 [Topiramate], the “mean recovery times following seizure” value (flies) is listed as “reduce” and the seizure (flies) is listed as “reduce”.
